According to patent US12473277B2, “Solid forms of a modulator of hemoglobin” (GLOBAL BLOOD THERAPEUTICS, INC., priority 2021, dated 2025):
Where a name gives a salt, the structure may show the parent alone.

Assays:
[1] = Physical stability of solid forms under humidity, temperature or vacuum stress (XRPD/observation); format: physicochemical
Method: XRPD figures were generated using SSCI Pattern Match 3.0.4, unvalidated software. XRPD patterns were collected with a PANalytical X'Pert PRO MPD or a PANalytical Empyrean diffractometer using an incident beam of Cu radiation produced using an Optix long, fine-focus source. An elliptically graded multilayer mirror was used to focus Cu Kα X-rays through the specimen and onto the detector. Prior to the analysis, a silicon specimen (NIST SRM 640e or NIST SRM 6400 was analyzed to verify the observed position of the Si 111 peak is consistent with the NIST-certified position. A specimen of the sample was sandwiched between 3-μm-thick films and analyzed in transmission geometry. A beam-stop, short antiscatter extension, and antiscatter knife edge were used to minimize the background generated by air. Soller slits for the incident and diffracted beams were used to minimize broadening and asymmetry from axial divergence. Diffraction patterns were collected using a scanning position-sensitive detector (X'Celerator) located 240 mm from the specimen and Data Collector software v. 2.2b or v. 5.5.

[2] = Binary interconversion slurry experiments between Compound I Form I and Compound I Material II; format: physicochemical; conditions: room temperature slurries
Source text: Binary interconversion slurry experiments between Compound I Form I and Compound I Material II in different solvent systems at room temperature are summarized in Table 2. Saturated solutions were generated and then added to mixtures composed of approximately equivalent quantities of the two polymorphs. The samples were slurried for several days and the solids harvested and analyzed by XRPD.

[3] = Dynamic vapor sorption/desorption (DVS) isotherm; format: physicochemical; conditions: for hygroscopicity indicated by DVS isotherm: 5% to 95% RH, 10% RH increments, nitrogen purge; for weight gain and loss through the sorption/desorption cycle / weight gain through the sorption cycle / weight loss upon desorption: DVS; for weight gain and loss through the sorption/desorption cycle / weight gain through the sorption cycle: 5 to 95% RH; for material recovered from the DVS experiment, by XRPD: after DVS sorption/desorption cycle; for weight loss upon desorption: 95 to 5% RH
Method: Automated vapor sorption (VS) data were collected on a Surface Measurement System DVS Intrinsic instrument or a VTI SGA-100 instrument. Samples were not dried prior to analysis. Sorption and desorption data were collected over a range from 5% to 95% relative humidity (RH) at 10% RH increments under a nitrogen purge. The equilibrium criterion used for analysis was less than 0.0100% weight change in 5 minutes with a maximum equilibration time of 3 hours. Data were not corrected for the initial moisture content of the samples.

physchem = conditions: water

Compound: CCS(=O)(=O)O.O=Cc1c(O)cccc1OC[C@@H]1COCCN1C(=O)c1cccnc1CCO [Compound I Esylate Form A, (S)-2-hydroxy-6-((4-(2-(2-hydroxyethyl)nicotinoyl)morpholin-3-yl)methoxy)benzaldehyde esylate]
- physical stability under vacuum (XRPD) ([1]; 44° C. under vacuum): not physically stable

Compound: CCS(=O)(=O)O.O=Cc1c(O)cccc1OC[C@@H]1COCCN1C(=O)c1cccnc1CCO [Compound I Esylate Form B, (S)-2-hydroxy-6-((4-(2-(2-hydroxyethyl)nicotinoyl)morpholin-3-yl)methoxy)benzaldehyde esylate]
- physical stability under high humidity ([1]; 90% relative humidity, ambient temperature): deliquesced

Compound: O=Cc1c(O)cccc1OC[C@@H]1COCCN1C(=O)c1cccnc1CCO [Compound I Form I, (S)-2-hydroxy-6-((4-(2-(2-hydroxyethyl)nicotinoyl)morpholin-3-yl)methoxy)benzaldehyde]
- relative thermodynamic stability from interconversion studies [2]: most thermodynamically stable form relative to Material II
- hygroscopicity indicated by DVS isotherm [3]: low hygroscopicity
- weight gain and loss through the sorption/desorption cycle [3]: 0.7%
- material recovered from the DVS experiment, by XRPD [3]: identified as Compound I Form I

Compound: O=Cc1c(O)cccc1OC[C@@H]1COCCN1C(=O)c1cccnc1CCO [Compound I HCl Form A]
- physical stability, XRPD pattern after stress ([1]; 40° C./75% RH for 27 days): no changes were observed in the XRPD pattern
- hygroscopicity indicated by DVS isotherm [3]: significant hygroscopicity
- weight gain through the sorption cycle [3]: 3%
- weight loss upon desorption [3]: 3.3%
- material recovered from the DVS experiment, by XRPD [3]: remained Compound I HCl Form A

Compound: O=Cc1c(O)cccc1OC[C@@H]1COCCN1C(=O)c1cccnc1CCO [Compound I Material II, (S)-2-hydroxy-6-((4-(2-(2-hydroxyethyl)nicotinoyl)morpholin-3-yl)methoxy)benzaldehyde]
- hygroscopicity indicated by DVS isotherm [3]: significant hygroscopicity above 85% RH
- weight gain and loss through the sorption/desorption cycle [3]: approximately 3.4%
- material recovered from the DVS experiment, by XRPD [3]: identified as Compound I Material II

Compound: O=Cc1c(O)cccc1OC[C@@H]1COCCN1C(=O)c1cccnc1CCO.O=S(=O)(O)c1cccc2c(S(=O)(=O)O)cccc12 [Compound I Napadisylate Form A, (S)-2-hydroxy-6-((4-(2-(2-hydroxyethyl)nicotinoyl)morpholin-3-yl)methoxy)benzaldehyde napadisylate]
- physical stability under vacuum (XRPD) ([1]; 43° C. under vacuum, within 4 days): not physically stable

Compound: O=C(O)C(=O)O.O=Cc1c(O)cccc1OC[C@@H]1COCCN1C(=O)c1cccnc1CCO [Compound I Oxalate Form B, (S)-2-hydroxy-6-((4-(2-(2-hydroxyethyl)nicotinoyl)morpholin-3-yl)methoxy)benzaldehyde oxalate]
- physical stability under high humidity (XRPD) ([1]; 90% RH, ambient temperature, 11 days): still predominately Compound I Oxalate Form B
- solubility (physchem): > 134 mg/mL

Compound: O=Cc1c(O)cccc1OC[C@@H]1COCCN1C(=O)c1cccnc1CCO.O=S(=O)(O)O [Compound I Sulfate Form A, (S)-2-hydroxy-6-((4-(2-(2-hydroxyethyl)nicotinoyl)morpholin-3-yl)methoxy)benzaldehyde sulfate]
- physical stability under vacuum (XRPD) ([1]; 43° C. under vacuum for 2 days): physically stable
- physical stability under high humidity ([1]; 90% RH, ambient temperature, within 1 day): deliquesces
- solubility (physchem): > 87 mg/mL

Compound: O=Cc1c(O)cccc1OC[C@@H]1COCCN1C(=O)c1cccnc1CCO [amorphous Compound I, (S)-2-hydroxy-6-((4-(2-(2-hydroxyethyl)nicotinoyl)morpholin-3-yl)methoxy)benzaldehyde]
- hygroscopicity indicated by DVS isotherm [3]: significant hygroscopicity
- weight gain through the sorption cycle [3]: approximately 10%
- weight loss upon desorption [3]: 7%
- material recovered from the DVS experiment, by XRPD [3]: remained amorphous

Compound: (S)-2-hydroxy-6-((4-(2-(2-hydroxyethyl)nicotinoyl)morpholin-3-yl)methoxy)benzaldehyde edisylate [Compound I Edisylate Form A]
- physical stability upon exposure to ambient conditions ([1]; ambient conditions, relative humidity approximately 57%): very hygroscopic and not stable under ambient conditions
- physical stability on drying in vacuum oven (XRPD) ([1]; damp sample, 43° C. vacuum oven): physical instability

Compound: (S)-2-hydroxy-6-((4-(2-(2-hydroxyethyl)nicotinoyl)morpholin-3-yl)methoxy)benzaldehyde edisylate [Compound I Edisylate Material B]
- physical stability under vacuum (XRPD) ([1]; 44° C. under vacuum): additional unidentified peaks
